Assay results from PMC7467159, “Anaerobic fixed-target serial crystallography” (IUCrJ, 2020).

Key:
VioC = biological target: T1, VioC (Streptomyces vinaceus, UniProt Q6WZB0); assay: room-temperature serial crystallography; type: binding; conditions: Fe(II)
T1 construct: codon-optimized, pNIC28-Bsa4, E. coli T7 LysY; His-tag cleaved with TEV protease; SEC purified; Fe(II) enzyme, microcrystals

IPNS = biological target: T2, IPNS (Aspergillus nidulans, UniProt P05326); assay: room-temperature serial crystallography; type: binding; conditions: anaerobic, Fe(II); cysteinyl sulfur ligates Fe
T2 construct: gene ipnA; recombinant, purified as in Roach et al; Fe(II) enzyme, microcrystals
T2 sequence (P05326 1-331): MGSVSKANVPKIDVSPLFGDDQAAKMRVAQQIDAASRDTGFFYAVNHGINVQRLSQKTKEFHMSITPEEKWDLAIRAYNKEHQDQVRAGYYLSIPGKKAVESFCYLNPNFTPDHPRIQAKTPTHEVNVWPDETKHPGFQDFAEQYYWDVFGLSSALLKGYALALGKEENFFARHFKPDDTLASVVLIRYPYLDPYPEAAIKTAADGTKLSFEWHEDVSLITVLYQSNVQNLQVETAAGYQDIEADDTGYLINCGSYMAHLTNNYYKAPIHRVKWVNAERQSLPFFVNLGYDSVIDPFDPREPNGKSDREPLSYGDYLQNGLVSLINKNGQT

T1 sequence (Q6WZB0 whole entry): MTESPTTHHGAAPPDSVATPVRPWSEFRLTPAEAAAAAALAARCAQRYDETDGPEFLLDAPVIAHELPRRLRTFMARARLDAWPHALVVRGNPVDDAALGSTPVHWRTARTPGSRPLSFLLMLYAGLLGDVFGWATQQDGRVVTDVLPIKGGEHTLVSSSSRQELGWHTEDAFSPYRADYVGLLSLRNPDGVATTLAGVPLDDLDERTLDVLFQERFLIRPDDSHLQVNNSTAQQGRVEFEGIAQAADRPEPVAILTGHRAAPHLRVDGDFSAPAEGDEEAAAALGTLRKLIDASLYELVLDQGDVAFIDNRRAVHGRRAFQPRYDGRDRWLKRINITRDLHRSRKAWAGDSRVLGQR

## O=C(O)CCC(=O)C(=O)O [2OG]
VioC; anaerobic, L-arginine, bidentate to Fe
  room-temperature serial crystallography: the 2OG ligates the Fe in a bidentate manner via its oxalyl group

## N=C(N)NCC[C@H](O)[C@H](N)C(=O)O [(3S)-OH-Arg]
VioC; formed in crystallo after 1 h air exposure, succinate, active site
  room-temperature serial crystallography: the (3S)-OH-Arg is positioned to coordinate Fe via its (3S)-hydroxyl group

## CC(C)[C@@H](NC(=O)[C@H](CS)NC(=O)CCC[C@H](N)C(=O)O)C(=O)O [ACV]
IPNS
  room-temperature serial crystallography: completed by a water molecule and the cysteinyl sulfur of the substrate ACV

## N=C(N)NCCC[C@H](N)C(=O)O [L-arginine]
VioC; anaerobic, 2OG, active site
  room-temperature serial crystallography: VioC:Fe:2OG:Arg substrate complex structure reported in this study (PDB entry 6y0n)

## O=C(O)CCC(=O)O [succinate]
VioC; formed in crystallo after 1 h air exposure, (3S)-OH-Arg, monodentate to Fe
  room-temperature serial crystallography: succinate is bound in a monodentate manner, also trans to His168
